Source: article PMC5863515, “Re-evaluation of Adrenocorticotropic Hormone and Melanocyte Stimulating Hormone Activation of GPR139 in Vitro” (Frontiers in Pharmacology, 2018)
pEC50: −log10 of the molar value. Like-named read-outs stand apart in the source and are kept apart here.

Columns and labels:
MC3R = molecular target: T1, MC3R (Homo sapiens, UniProt P41968); assay: Calcium mobilization, HEK-293 transiently expressing MC3R; assay type: cell-based; conditions: for EC50: HEK-293 transient, read-out: Agonist potency (pEC50), MC3R (converted)
T1 construct: expressed in transfected cells; host or cells: HEK-293, pCIneo, transient (FuGene HD)
T1 sequence (P41968 whole entry): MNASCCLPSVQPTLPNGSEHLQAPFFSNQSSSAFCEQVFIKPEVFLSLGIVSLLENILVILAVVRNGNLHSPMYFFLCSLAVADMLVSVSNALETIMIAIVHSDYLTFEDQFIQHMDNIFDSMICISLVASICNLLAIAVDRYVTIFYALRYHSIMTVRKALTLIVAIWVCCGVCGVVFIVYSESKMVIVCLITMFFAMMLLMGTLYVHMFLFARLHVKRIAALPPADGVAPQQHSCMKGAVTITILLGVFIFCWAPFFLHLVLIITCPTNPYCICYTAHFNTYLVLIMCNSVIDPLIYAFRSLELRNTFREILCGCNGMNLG
Protocol: (§1) Human MC3R (NM_019888), MC4R (NM_005912), and MC5R (NM_005913) were transiently expressed in HEK-293 cells with and without human GPR139 (KR081941) or the chimeric G-protein Gα16. All genes were cloned into pCIneo (Promega, Madison, WI, United States, #E1841). HEK-293 cells were cultured in DMEM/F12 (Gibco, Grand Island, NY, United States, #11039-021), 10% FBS (Hyclone, Logan, UT, United States, # SH300700.03), 50 units/ml penicillin and 50 μg/ml streptomycin (Mediatech, Manassas, VA, United States, #30-001-CI). Cells were seeded at 4 × 10^6 cells in 10 cm dishes and allowed to grow overnight at 37°C, 5% CO2. On the day of transfection, culture media was replaced with F12-K (Mediatech, Manassas, VA, United States, #10-025-CV), 10% FBS, 20 mM HEPES (Hyclone, Logan, UT, United States, #SH30237.01) and transfected with 15 μg DNA (10 μg MCR:5 μg pCIneo, 10 μg MCR:5 μg Gα16 or 7.5 μg MCR:7.5 μg GPR139) using FuGene HD (Promega, Madison, WI, United States, #E2311) according to manufacturer’s instructions. MC3R, MC4R, and MC5R were also transiently expressed in the following GPR139 stably expressing cell lines using the FuGENE HD method: HEK-293 GPR139 clone#33, CHO-TREx GPR139 clone#18, and SK-N-MC/CRE TREx GPR139 clone#35. Stable cell lines were established according to method previously described ([Liu et al., 2015]).
(§2) Intracellular calcium mobilization was measured with the BD calcium kit (BD Bioscience, San Jose, CA, United States). The recombinant cell lines expressing MC3R, MC4R, and MC5R with and without GPR139 or Gα16 were seeded in culture media at a density of 50,000 cells/well into 96-well black/clear-bottom poly-D-lysine treated tissue culture plates. Cells were incubated overnight at 37°C and 5% CO2. Next day, culture media was removed and cells were washed with HBSS prior to dye-loading for 1 h at 37°C and 5% CO2. […] EC50s were calculated by fitting a three-parameter logistic curve using least-squares non-linear regression analysis as implemented in Graphpad Prism 7.0.

MC3R + Gα16 = molecular target: T2, MC3R + Gα16 (Homo sapiens, UniProt P41968); assay: Calcium mobilization, HEK-293 transiently expressing MC3R + Gα16; assay type: cell-based; conditions: for EC50: HEK-293 transient, read-out: Agonist potency (pEC50), MC3R + Gα16 (converted)
T2 construct: expressed in transfected cells; host or cells: HEK-293, pCIneo, transient (10 μg MCR:5 μg Gα16)
T2 sequence (P41968 whole entry): as above
Protocol: as §1, §2

MC3R + GPR139 = MC3R + GPR139 (Homo sapiens, UniProt Q6DWJ6); assay: Calcium mobilization, HEK-293 transiently expressing MC3R + GPR139; assay type: cell-based
MC3R + GPR139, sequence (P41968 whole entry partner, one chain of several): as the sequence (P41968 whole entry) above
Protocol: Intracellular calcium mobilization was measured with the BD calcium kit (BD Bioscience, San Jose, CA, United States). The recombinant cell lines expressing MC3R, MC4R, and MC5R with and without GPR139 or Gα16 were seeded in culture media at a density of 50,000 cells/well into 96-well black/clear-bottom poly-D-lysine treated tissue culture plates. Cells were incubated overnight at 37°C and 5% CO2. Next day, culture media was removed and cells were washed with HBSS prior to dye-loading for 1 h at 37°C and 5% CO2. Agonist stimulation and intracellular calcium measurements were done on the FLIPR Tetra (Molecular Devices, Sunnyvale, CA, United States). […] EC50s were calculated by fitting a three-parameter logistic curve using least-squares non-linear regression analysis as implemented in Graphpad Prism 7.0.

MC4R = molecular target: T3, MC4R (Homo sapiens, UniProt P32245); assay: Calcium mobilization, HEK-293 transiently expressing MC4R; assay type: cell-based; conditions: for EC50: HEK-293 transient, read-out: Agonist potency (pEC50), MC4R (converted)
T3 construct: expressed in transfected cells; host or cells: HEK-293, pCIneo, transient (FuGene HD)
T3 sequence (P32245 whole entry): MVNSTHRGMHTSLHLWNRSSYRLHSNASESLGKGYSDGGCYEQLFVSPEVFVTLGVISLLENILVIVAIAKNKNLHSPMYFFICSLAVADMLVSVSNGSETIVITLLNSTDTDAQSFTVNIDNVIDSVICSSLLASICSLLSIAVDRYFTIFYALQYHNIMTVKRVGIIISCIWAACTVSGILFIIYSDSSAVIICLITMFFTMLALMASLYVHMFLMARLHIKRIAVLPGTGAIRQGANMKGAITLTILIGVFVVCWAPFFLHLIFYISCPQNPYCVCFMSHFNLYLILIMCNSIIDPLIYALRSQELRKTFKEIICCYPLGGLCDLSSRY
Protocol: as §1
(§3) Intracellular calcium mobilization was measured with the BD calcium kit (BD Bioscience, San Jose, CA, United States). The recombinant cell lines expressing MC3R, MC4R, and MC5R with and without GPR139 or Gα16 were seeded in culture media at a density of 50,000 cells/well into 96-well black/clear-bottom poly-D-lysine treated tissue culture plates. Cells were incubated overnight at 37°C and 5% CO2. Next day, culture media was removed and cells were washed with HBSS prior to dye-loading for 1 h at 37°C and 5% CO2. Agonist stimulation and intracellular calcium measurements were done on the FLIPR Tetra (Molecular Devices, Sunnyvale, CA, United States). For receptor inhibition analysis, antagonists (1 μM HS-024 or 10 μM JNJ-3792165) were added off-line 15 min prior to agonist addition on the Tetra. For G-protein inhibitor experiments, cells were treated with 1 μM YM-254890 for 5 min prior to agonist additions on the Tetra. […] Responses in Figure 6 were normalized to its respective agonist response without antagonist. EC50s were calculated by fitting a three-parameter logistic curve using least-squares non-linear regression analysis as implemented in Graphpad Prism 7.0.

MC4R + GPR139 = MC4R + GPR139 (Homo sapiens, UniProt Q6DWJ6); assay: Calcium mobilization, HEK-293 transiently expressing MC4R + GPR139; assay type: cell-based
MC4R + GPR139, sequence (P32245 whole entry partner, one chain of several): as the sequence (P32245 whole entry) above
Protocol: as §1, §3

MC5R + Gα16 = molecular target: T4, MC5R + Gα16 (Homo sapiens, UniProt P33032); assay: Calcium mobilization, HEK-293 transiently expressing MC5R + Gα16; assay type: cell-based; conditions: HEK-293 transient; read-out: Agonist potency (pEC50), MC5R + Gα16 (converted)
T4 construct: expressed in transfected cells; host or cells: HEK-293, pCIneo, transient (10 μg MCR:5 μg Gα16)
T4 sequence (P33032 whole entry): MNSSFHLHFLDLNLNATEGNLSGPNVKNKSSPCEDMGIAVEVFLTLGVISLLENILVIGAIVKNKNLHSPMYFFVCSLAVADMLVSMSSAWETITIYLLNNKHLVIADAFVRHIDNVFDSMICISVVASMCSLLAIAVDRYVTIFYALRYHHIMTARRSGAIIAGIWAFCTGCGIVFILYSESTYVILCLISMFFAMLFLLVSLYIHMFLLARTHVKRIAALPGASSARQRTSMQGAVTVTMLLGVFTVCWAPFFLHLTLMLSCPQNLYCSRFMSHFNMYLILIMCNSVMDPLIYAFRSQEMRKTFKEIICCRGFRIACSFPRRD
Protocol: as §1, §2

GPR139 + MC3R = molecular target: T5, GPR139 + MC3R (Homo sapiens, UniProt Q6DWJ6); assay: Calcium mobilization, stable GPR139-HEK-293 cell line transiently expressing MC3R; assay type: cell-based; conditions: for EC50: read-out: Agonist potency (pEC50), stable GPR139-HEK-293 + MC3R (converted)
T5 construct: expressed in transfected cells; host or cells: HEK-293 GPR139 clone#33, MC3R transient (FuGENE HD)
T5 sequence (Q6DWJ6 1-353): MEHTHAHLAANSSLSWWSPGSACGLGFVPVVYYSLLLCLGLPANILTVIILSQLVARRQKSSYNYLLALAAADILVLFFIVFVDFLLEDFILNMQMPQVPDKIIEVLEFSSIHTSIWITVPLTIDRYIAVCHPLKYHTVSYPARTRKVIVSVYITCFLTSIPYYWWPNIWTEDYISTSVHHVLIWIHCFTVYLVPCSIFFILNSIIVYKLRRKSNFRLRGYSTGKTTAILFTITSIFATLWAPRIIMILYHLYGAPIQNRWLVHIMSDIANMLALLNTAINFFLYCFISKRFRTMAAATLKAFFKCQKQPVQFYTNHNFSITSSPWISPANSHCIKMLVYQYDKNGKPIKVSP
Protocol: as §1, §2

GPR139 + MC4R = GPR139 + MC4R (Homo sapiens, UniProt Q6DWJ6); assay: Calcium mobilization, stable GPR139-HEK-293 cell line transiently expressing MC4R; assay type: cell-based
GPR139 + MC4R, sequence (P32245 whole entry partner, one chain of several): as the sequence (P32245 whole entry) above
Protocol: as §1, §2

GPR139 [1] = molecular target: T6, GPR139 (Homo sapiens, UniProt Q6DWJ6); assay: Calcium mobilization, HEK-293 cells stably expressing human GPR139; assay type: cell-based; parameters: expressed in transfected cells; conditions: for EC50: HEK-293 stable GPR139, read-out: pEC50, calcium mobilization (converted)
T6 sequence (Q6DWJ6 1-353): T5 sequence (Q6DWJ6 1-353)
Protocol: as §1, §3

GPR139 [2] = molecular target: T6, GPR139; assay: [35S]-GTPγS binding assay, membranes of CHO-TREx cells stably expressing GPR139; assay type: biochemical; parameters: expressed in transfected cells; host or cells: CHO-TREx GPR139 clone#18; conditions: for Stimulation of [35S]-GTPγS incorporation after pertussis toxin treatment: 100 ng/ml pertussis toxin overnight; for Stimulation of [35S]-GTPγS incorporation after pertussis toxin treatment / Effect of YM-254890 on agonist [35S]-GTPγS response: data not shown; for Effect of YM-254890 on agonist [35S]-GTPγS response: 1 μM YM-254890 (Gq inhibitor); for EC50: CHO-TREx GPR139 membranes, mean ± SEM, read-out: pEC50, [35S]-GTPγS binding (converted)
Protocol: For G-protein inhibitor experiments, CHO-TRex cells stably expressing GPR139 were treated with 100 ng/ml pertussis toxin (Gi/o inhibitor) overnight prior to harvesting cells for membrane preparations. […] Reactions were terminated by rapid filtration through GF/C filterplates (Perkin-Elmer, Waltham, MA, United States) on a Cell Harvester (Perkin-Elmer, Waltham, MA, United States). Filterplates were washed three times with ice-cold wash buffer (50 mM Tris, 5 mM MgCl2) and Microscint-40 was added to each well. Bound radioactivity was measured on a Topcount scintillation counter (Perkin-Elmer, Waltham, MA, United States). […] EC50s were calculated by modeling the response associated with the logarithm of concentration as a three-parameter logistic curve with the Bottom plateau parameter fixed at 0. The fit was obtained using least-squares non-linear regression as implemented in GraphPad Prism 7.0.

GPR139 [3] = molecular target: T6, GPR139; assay: Calcium mobilization, CHO-TREx cells stably expressing human GPR139; assay type: cell-based; parameters: expressed in transfected cells; host or cells: CHO-TREx GPR139 clone#18; conditions: for EC50: CHO-TREx stable GPR139, read-out: pEC50, calcium mobilization (converted)

| Structure (SMILES) | EC50 (MC3R) [µM] | EC50 (MC3R + Gα16) [µM] | pEC50 (MC3R + GPR139) | Agonist potency (pEC50), MC3R + GPR139, No antagonist (MC3R + GPR139) | EC50 (MC4R) [µM] | pEC50 (MC4R + GPR139) | Agonist potency (pEC50), MC4R + GPR139, No antagonist (MC4R + GPR139) | EC50 (MC5R + Gα16) [µM] | EC50 (GPR139 + MC3R) [nM] | pEC50 (GPR139 + MC4R) | EC50 (GPR139 [1]) [nM] | Stimulation of [35S]-GTPγS incorporation after pertussis toxin treatment (GPR139 [2]) | Effect of YM-254890 on agonist [35S]-GTPγS response (GPR139 [2]) | EC50 (GPR139 [2]) [nM] | EC50 (GPR139 [3]) [nM] | further results |
| --- | --- | --- | --- | --- | --- | --- | --- | --- | --- | --- | --- | --- | --- | --- | --- | --- |
| C[C@H](NC(=O)CNC(=O)c1cccc(Cl)c1)c1ccccc1 [JNJ-63533054, 3-chloro-N-[2-oxo-2-[[(1S)-1-phenylethyl]amino]ethyl]benzamide] | > 10 | > 10 | 7.43 | 7.43 ± 0.09 | > 10 | 7.45 | 7.45 ± 0.09 | > 10 | 20.4 | 7.76 | 21.4 | did not stimulate | had no effect | 64.6 | 13.2 | – |
| N[C@@H](Cc1c[nH]c2ccccc12)C(=O)O [L-Trp, L-tryptophan] | > 3160 | > 3160 | 4.06 | 4.06 ± 0.06 | > 3160 | 4.03 | 4.03 ± 0.05 | > 3160 | 126000 | 3.86 | 204000 | did not stimulate | had no effect | 427000 | 123000 | – |
| COc1cc(OC)cc(C(=O)NNC(=O)Nc2cccc3ccccc23)c1 [TC-O9311] | – | – | 7.16 | 7.16 ± 0.08 | – | 7.18 | 7.18 ± 0.08 | > 10 | – | 7.21 | – | did not stimulate | had no effect | 178 | – | pEC50 (MC3R): < 5.00; pEC50 (MC3R + Gα16): < 5.00; pEC50 (MC4R): < 5.00; pEC50 (GPR139 + MC3R): 7.30; pEC50 (GPR139 [1]): 7.11; pEC50 (GPR139 [3]): 7.40 |
